“And” between values parts separate entries of the source, which are not always exact repeats. Equal entries are not always repeated. Inconclusive results and toxic doses are left out.
System: P388 leukemia ip, CD2F1 mice, survival T/C
Assay: NCI In Vivo Anticancer Drug Screen. Data for tumor model P388 Leukemia (intraperitoneal) in CD2F1 (CDF1) mice
Conditions: endpoint: median survival time, higher = longer survival
In short: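 Mice carrying the transplanted tumor received test compound or vehicle. Survival was recorded in each group, and the value is the treated-group measurement divided by that of the vehicle-treated control group.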

[1] = dose: 50.0 mg/kg/injection, schedule: Q01DX005 (ip), vehicle: saline with Tween-80
[2] = dose: 100.0 mg/kg/injection, schedule: Q01DX005 (ip), vehicle: saline with Tween-80
[3] = dose: 50.0 mg/kg/injection, schedule: Q01DX001 (ip), vehicle: saline with Tween-80
[4] = dose: 100.0 mg/kg/injection, schedule: Q01DX001 (ip), vehicle: saline with Tween-80
[5] = dose: 50.0 mg/kg/injection, schedule: Q04DX003 (ip), vehicle: saline with Tween-80
[6] = dose: 100.0 mg/kg/injection, schedule: Q04DX003 (ip), vehicle: saline with Tween-80
[7] = dose: 200.0 mg/kg/injection, schedule: Q04DX003 (ip), vehicle: saline with Tween-80
[8] = dose: 12.5 mg/kg/injection, schedule: Q01DX009 (ip), vehicle: Klucel (hydroxypropylcellulose) (HPC)
[9] = dose: 25.0 mg/kg/injection, schedule: Q01DX009 (ip), vehicle: Klucel (hydroxypropylcellulose) (HPC)
[10] = dose: 50.0 mg/kg/injection, schedule: Q01DX009 (ip), vehicle: Klucel (hydroxypropylcellulose) (HPC)
[11] = dose: 60.0 mg/kg/injection, schedule: Q01DX005 (ip), vehicle: saline with Tween-80
[12] = dose: 50.0 mg/kg/injection, schedule: Q01DX009 (ip), vehicle: saline
[13] = dose: 100.0 mg/kg/injection, schedule: Q01DX009 (ip), vehicle: saline
[14] = dose: 200.0 mg/kg/injection, schedule: Q01DX009 (ip), vehicle: saline
[15] = dose: 200.0 mg/kg/injection, schedule: Q01DX001 (ip), vehicle: saline with Tween-80

CC1(C)CSC(=S)N1
T/C (dose: 2.5 mg/kg/injection, schedule: Q01DX009 (ip), vehicle: saline sonified): 109 % of control | T/C (dose: 5.0 mg/kg/injection, schedule: Q01DX009 (ip), vehicle: saline sonified): 100 % of control | T/C (dose: 10.0 mg/kg/injection, schedule: Q01DX009 (ip), vehicle: saline sonified): 100 % of control

CCCCCC(=O)c1c(-c2ccc(C)cc2)cc(O)c(CCCC)c1-c1ccc(C)cc1
T/C (dose: 25.0 mg/kg/injection, schedule: Q01DX005 (ip), vehicle: saline with Tween-80): 108 % of control | T/C [1]: 97 % of control | T/C [2]: 104 % of control

C=C1C(=O)OC2C=CCCCC12 (configuration not stated)
T/C [3]: 105 % of control | T/C [4]: 102 % of control

O=S1(=O)CC2(N3CCOCC3)C3CCC(C3)C21 (configuration not stated)
T/C [5]: 99 % of control and 101 % of control | T/C [6]: 100 % of control and 104 % of control | T/C [7]: 101 % of control and 104 % of control

C=C1CC2(CC(C)CCC2=C(C)C)OC1=O (configuration not stated)
T/C (dose: 100.0 mg/kg/injection, schedule: Q01DX001 (ip), vehicle: saline): 101 % of control | T/C (dose: 200.0 mg/kg/injection, schedule: Q01DX001 (ip), vehicle: saline): 100 % of control | T/C (dose: 400.0 mg/kg/injection, schedule: Q01DX001 (ip), vehicle: saline): 101 % of control

CCC1C2Cc3ccc(O)cc3C1(C)CCN2C (configuration not stated)
T/C (dose: 12.5 mg/kg/injection, schedule: Q01DX005 (ip), vehicle: Klucel (hydroxypropylcellulose) (HPC)): 100 % of control | T/C (dose: 25.0 mg/kg/injection, schedule: Q01DX005 (ip), vehicle: Klucel (hydroxypropylcellulose) (HPC)): 99 % of control | T/C (dose: 50.0 mg/kg/injection, schedule: Q01DX005 (ip), vehicle: Klucel (hydroxypropylcellulose) (HPC)): 102 % of control and 107 % of control

C[n+]1c2ccccc2c(Nc2ccc(NS(=O)(=O)CCCCN=C(N)N)cc2)c2ccc(N)cc21
T/C (dose: 0.75 mg/kg/injection, schedule: Q01DX005 (ip), vehicle: Klucel (hydroxypropylcellulose) (HPC)): 113 % of control | T/C (dose: 1.5 mg/kg/injection, schedule: Q01DX005 (ip), vehicle: Klucel (hydroxypropylcellulose) (HPC)): 122 % of control | T/C (dose: 3.0 mg/kg/injection, schedule: Q01DX005 (ip), vehicle: Klucel (hydroxypropylcellulose) (HPC)): 151 % of control

ClCc1ccccc1CCl
T/C (dose: 5.0 mg/kg/injection, schedule: Q04DX003 (ip), vehicle: saline with Tween-80): 106 % of control | T/C (dose: 10.0 mg/kg/injection, schedule: Q04DX003 (ip), vehicle: saline with Tween-80): 94 % of control | T/C (dose: 20.0 mg/kg/injection, schedule: Q04DX003 (ip), vehicle: saline with Tween-80): 100 % of control | T/C (dose: 40.0 mg/kg/injection, schedule: Q04DX003 (ip), vehicle: saline with Tween-80): 117 % of control

OC(CCl)C(O)C(O)C(O)CCl (configuration not stated)
T/C [6]: 109 % of control | T/C [7]: 100 % of control | T/C (dose: 400.0 mg/kg/injection, schedule: Q04DX003 (ip), vehicle: saline with Tween-80): 113 % of control

CC1(C)CC[C@H](C2=CC(=O)c3c(O)ccc(O)c3C2=O)O1
T/C (dose: 1.25 mg/kg/injection, schedule: Q01DX009 (ip), vehicle: Klucel (hydroxypropylcellulose) (HPC)): 117 % of control | T/C (dose: 2.5 mg/kg/injection, schedule: Q01DX009 (ip), vehicle: Klucel (hydroxypropylcellulose) (HPC)): 115 % of control | T/C (dose: 5.0 mg/kg/injection, schedule: Q01DX009 (ip), vehicle: Klucel (hydroxypropylcellulose) (HPC)): 119 % of control | T/C (dose: 10.0 mg/kg/injection, schedule: Q01DX009 (ip), vehicle: Klucel (hydroxypropylcellulose) (HPC)): 118 % of control

C[C@@H]1CN1C1=CC(=O)C(N2C[C@H]2C)=CC1=O
T/C (dose: 0.31 mg/kg/injection, schedule: Q01DX009 (ip), vehicle: gum acacia): 122 % of control | T/C (dose: 1.25 mg/kg/injection, schedule: Q01DX009 (ip), vehicle: gum acacia): 169 % of control | T/C (dose: 2.5 mg/kg/injection, schedule: Q01DX009 (ip), vehicle: gum acacia): 166 % of control and 169 % of control | T/C (dose: 5.0 mg/kg/injection, schedule: Q01DX009 (ip), vehicle: gum acacia): 169 % of control and 173 % of control | T/C (dose: 37.0 micrograms/kg/injection, schedule: Q01DX009 (ip), vehicle: gum acacia): 102 % of control | T/C (dose: 75.0 micrograms/kg/injection, schedule: Q01DX009 (ip), vehicle: gum acacia): 113 % of control | T/C (dose: 150.0 micrograms/kg/injection, schedule: Q01DX009 (ip), vehicle: gum acacia): 117 % of control | T/C (dose: 310.0 micrograms/kg/injection, schedule: Q01DX009 (ip), vehicle: gum acacia): 111 % of control

CC1CCC2(NC1)OC1CC3C4CCC5CC(N)CCC5(C)C4CCC3(C)C1C2C (configuration not stated)
T/C (dose: 6.25 mg/kg/injection, schedule: Q01DX009 (ip), vehicle: Klucel (hydroxypropylcellulose) (HPC)): 105 % of control | T/C [8]: 95 % of control | T/C [9]: 106 % of control | T/C [10]: 110 % of control

O=C(CCc1nc2ccccc2[nH]1)C1Cc2ccccc2C1=O (configuration not stated)
T/C [11]: 103 % of control | T/C (dose: 120.0 mg/kg/injection, schedule: Q01DX005 (ip), vehicle: saline with Tween-80): 104 % of control | T/C (dose: 240.0 mg/kg/injection, schedule: Q01DX005 (ip), vehicle: saline with Tween-80): 103 % of control

CCOC(=O)CSc1ccc(C)cc1
T/C (dose: 25.0 mg/kg/injection, schedule: Q01DX009 (ip), vehicle: saline): 105 % of control | T/C [12]: 89 % of control | T/C [13]: 96 % of control | T/C [14]: 99 % of control

CCOC(=O)c1cc[nH]c1CC(=O)NC
T/C (dose: 25.0 mg/kg/injection, schedule: Q01DX001 (ip), vehicle: saline with Tween-80): 98 % of control and 107 % of control | T/C [3]: 102 % of control and 105 % of control | T/C [4]: 103 % of control and 113 % of control | T/C [15]: 113 % of control and 116 % of control

COc1cc([C@@H]2c3cc(OC(C)=O)c(OC)cc3C[C@@H]3C(=O)OC[C@@H]23)ccc1OC(C)=O
T/C [1]: 98 % of control | T/C [2]: 93 % of control | T/C (dose: 200.0 mg/kg/injection, schedule: Q01DX005 (ip), vehicle: saline with Tween-80): 93 % of control

NC(CSCCCCl)C(=O)O (configuration not stated)
T/C [12]: 95 % of control | T/C [13]: 95 % of control | T/C [14]: 97 % of control

CC(=O)NC(C=O)C(OC(C)C(=O)NC(C)C(=O)NC(CCC(N)=O)C(=O)O)C(OC1OC(CO)C(O)C(O)C1NC(C)=O)C(O)CO (configuration not stated)
T/C (dose: 6.25 mg/kg/injection, schedule: Q01DX005 (ip), vehicle: saline): 111 % of control | T/C (dose: 12.5 mg/kg/injection, schedule: Q01DX005 (ip), vehicle: saline): 112 % of control | T/C (dose: 25.0 mg/kg/injection, schedule: Q01DX005 (ip), vehicle: saline): 112 % of control | T/C (dose: 50.0 mg/kg/injection, schedule: Q01DX005 (ip), vehicle: saline): 116 % of control

COC(=O)Cn1/c(=N\N=C\c2ccc(OC)cc2)sc2ccccc21
T/C [4]: 101 % of control | T/C [15]: 101 % of control | T/C (dose: 400.0 mg/kg/injection, schedule: Q01DX001 (ip), vehicle: saline with Tween-80): 92 % of control

COc1ccccc1OCC(=O)c1ccccc1
T/C (dose: 10.0 mg/kg/injection, schedule: Q01DX005 (ip), vehicle: Klucel (hydroxypropylcellulose) (HPC)): 102 % of control | T/C (dose: 20.0 mg/kg/injection, schedule: Q01DX005 (ip), vehicle: Klucel (hydroxypropylcellulose) (HPC)): 96 % of control | T/C (dose: 40.0 mg/kg/injection, schedule: Q01DX005 (ip), vehicle: Klucel (hydroxypropylcellulose) (HPC)): 100 % of control

CC(C)=CCC(OC(=O)CC(C)(C)O)C1=CC(=O)c2c(O)ccc(O)c2C1=O (configuration not stated)
T/C (dose: 18.75 mg/kg/injection, schedule: Q01DX005 (ip), vehicle: Klucel (hydroxypropylcellulose) (HPC)): 90 % of control | T/C (dose: 37.5 mg/kg/injection, schedule: Q01DX005 (ip), vehicle: Klucel (hydroxypropylcellulose) (HPC)): 100 % of control

Clc1c2ccccc2[se][n+]1Cc1ccccc1
T/C [8]: 104 % of control and 108 % of control and 111 % of control | T/C [9]: 105 % of control and 106 % of control and 112 % of control | T/C [10]: 105 % of control and 107 % of control and 121 % of control | T/C (dose: 100.0 mg/kg/injection, schedule: Q01DX009 (ip), vehicle: Klucel (hydroxypropylcellulose) (HPC)): 106 % of control and 110 % of control

Cc1ccc(C(=O)CCl)c(C)c1
T/C (dose: 12.5 mg/kg/injection, schedule: Q04DX003 (ip), vehicle: saline with Tween-80): 110 % of control | T/C (dose: 25.0 mg/kg/injection, schedule: Q04DX003 (ip), vehicle: saline with Tween-80): 105 % of control | T/C [5]: 110 % of control

Brc1cn2[n+](c1)[B-]n1cc(Br)c[n+]1[B-]2
T/C (dose: 15.0 mg/kg/injection, schedule: Q01DX005 (ip), vehicle: saline with Tween-80): 100 % of control | T/C (dose: 30.0 mg/kg/injection, schedule: Q01DX005 (ip), vehicle: saline with Tween-80): 100 % of control | T/C [11]: 100 % of control and 101 % of control
